Literature values, collected in patent US20050053970A1, “Methods and compositions for identifying peptide aptamers capable of altering a cell phenotype” (priority 2001, published 2005).

Tests used:
[1] = target: T1, mutant human growth hormone (Thr175 Gly-hGH) and extracellular domain of the hGH receptor (Trp104 Gly-hGHbp) (Homo sapiens, UniProt P01241+P10912, T201G/W122G); settings: Thr175 Gly-hGH with Trp104 Gly-hGHbp
T1 construct: the extracellular domain of the hGH receptor (Trp104 Gly-hGHbp)

[2] = target: α/δ and α/γ sites in T. californica electric organ (Tetronarce californica, UniProt P02710+P02714+P02718)
mammals = settings: in vivo

| Molecule | increase of the affinity of the mutant hormone for its receptor [1] | activity in T. californica [2] | discrimination between the α/δ and α/γ sites [2] | effect in mammals (mammals) |
| --- | --- | --- | --- | --- |
| Clc1cnc(C(Cl)(Cl)Cl)[nH]1 [5-chloro-2-trichloromethylimidazole] | more than 1000 fold |  |  |  |
| ICCNPACGPLYSC-NH2 [α-conotoxin SI] |  | active | does not distinguish | essentially no effect |
| ECCNPACGRHYSC-NH2 [α-conotoxin GI] |  |  | finds the α/δ site preferable to the α/γ site | lethal to mammals at low concentrations |
